The subject of assay [1] is Mycobacterium tuberculosis. Description: Antitubercular activity against Mycobacterium tuberculosis H37Rv ATCC 27294 incubated up to 7 days measured on day 7 by microplate Alamar Blue assay. Type of assay: functional. The settings on record: H37Rv ATCC 27294, 168 h.
Assay [2] relates to Mycobacterium tuberculosis. Description: Antitubercular activity against recombinant Mycobacterium tuberculosis H37Rv expressing Vibrio harveyii luciferase gene with acetamidase promoter assessed as prevention of metabolic recovery incubated for 10 days in anaerobic environment followed by 28 hrs recovery in aerobic environment by low-oxygen recovery assay. The class given is functional.

In brackets after ≈: the same amount, converted by molar mass.

Broadly, the MIC90 is an inhibitory concentration at the 90% level, which refers to growth in some studies and to a panel of isolates in others.

`Clc1cccc(-c2nc(-c3ccccc3)c[nH]2)c1` registered an MIC90 in assay [1] of 60.4 µM (≈ 15.4 µg/mL).

In turn, `COc1cccc(-c2nc(-c3ccccc3)c[nH]2)c1OC` came in with an MIC90 in assay [1] of 55.2 µM (≈ 15.5 µg/mL).

In assay [1], `O=[N+]([O-])c1ccc(-c2c[nH]c(-c3ccccc3)n2)cc1` gave an MIC90 of over 128 µM.

As to `Cn1cc(-c2cccc(C(F)(F)F)c2)nc1-c1cccc(C(F)(F)F)c1`, the MIC90 was found to be 7.9 µM (≈ 2.93 µg/mL) in assay [1] and 50.7 µM in assay [2].

In turn, `Oc1ccc(-c2nc(-c3ccccc3)c[nH]2)cc1` gave an MIC90 in assay [1] of over 128 µM.

Consider `COc1ccc(-c2csc(Nc3ccc(C)cc3)n2)cc1`, for which the MIC90 in assay [1] came out at 15.6 µM (≈ 4.62 µg/mL).

With `c1ccc(-c2c[nH]c(C3CCCCC3)n2)cc1`, in assay [1], the MIC90 was determined as 125 µM (≈ 28.2 µg/mL).

For `FC(F)(F)c1cccc(-c2c[nH]c(-c3cc(C(F)(F)F)cc(C(F)(F)F)c3)n2)c1`, the MIC90 is 7.7 µM (≈ 3.27 µg/mL) in assay [1] and 11.3 µM in assay [2].

As for `FC(F)(F)c1cccc(-c2c[nH]c(-c3cccc(C(F)(F)F)c3)n2)c1`, the MIC90 in assay [1] worked out at 1.7 µM (≈ 0.606 µg/mL); in assay [2], 25.4 µM.

With `c1ccc(-c2c[nH]c(-c3ccsc3)n2)cc1`, the MIC90 in assay [1] was 107 µM (≈ 24.3 µg/mL).

In assay [1], `FC(F)(F)Oc1cccc(-c2nc(-c3ccccc3)c[nH]2)c1` returned an MIC90 of 35.5 µM (≈ 10.8 µg/mL).

`c1ccc(-c2c[nH]c(-c3ccccc3)n2)cc1`: the MIC90 in assay [1] worked out at 128 µM (≈ 28.1 µg/mL).

`FC(F)(F)c1ccc(-c2nc(-c3ccccc3)c[nH]2)cc1` showed an MIC90 in assay [1] of 48.9 µM (≈ 14.1 µg/mL).

On to `Fc1cc(-c2nc(-c3cccc(C(F)(F)F)c3)c[nH]2)cc(C(F)(F)F)c1`, for which the MIC90 in assay [1] came to 6 µM (≈ 2.25 µg/mL); in assay [2] it was 17.6 µM.

Regarding `COc1ccc(-c2csc(Nc3cc(Cl)cc(Cl)c3)n2)cc1`, the MIC90 in assay [1] was determined as 13 µM (≈ 4.57 µg/mL).

`COc1ccc(-c2c[nH]c(-c3ccccc3)n2)cc1`: in assay [1], the MIC90 was determined as 82.4 µM (≈ 20.6 µg/mL).

For `FC(F)(F)c1cccc(-c2nc(-c3ccccc3)c[nH]2)c1`, in assay [1], the MIC90 amounted to 30.6 µM (≈ 8.82 µg/mL).

In assay [1], `CO[C@H]1/C=C/O[C@@]2(C)Oc3c(C)c(O)c4c(O)c(c(/C=N/N5CCN(C)CC5)c(O)c4c3C2=O)NC(=O)/C(C)=C\C=C\[C@H](C)[C@H](O)[C@@H](C)[C@@H](O)[C@@H](C)[C@H](OC(C)=O)[C@@H]1C` [RIFAMPIN] registered an MIC90 of 0.05 µM (≈ 0.0411 µg/mL).

As to `COc1ccc(-c2nc(-c3ccccc3)c[nH]2)cc1`, in assay [1], the MIC90 turned out to be 119 µM (≈ 29.9 µg/mL).

`Cc1[nH]c(-c2cccc(C(F)(F)F)c2)nc1-c1cccc(C(F)(F)F)c1` yielded an MIC90 in assay [1] of 14 µM (≈ 5.18 µg/mL).

Regarding `Cc1ccc(-c2nc(-c3ccccc3)c[nH]2)cc1`, in assay [1], the MIC90 was determined as 124 µM (≈ 29.1 µg/mL).

Regarding `FC(F)(F)c1cccc(-c2c[nH]c(-c3ccccc3)n2)c1`, in assay [1], the MIC90 was 37 µM (≈ 10.7 µg/mL).

As for `Clc1cccc(-c2c[nH]c(-c3ccccc3)n2)c1`, the MIC90 in assay [1] was 60.3 µM (≈ 15.4 µg/mL).

Turning to `COc1ccccc1-c1nc(-c2ccccc2)c[nH]1`, in assay [1], the MIC90 was over 128 µM.

Consider `Clc1ccc(-c2c[nH]c(-c3ccccc3)n2)cc1`, for which the MIC90 in assay [1] amounted to 59.5 µM (≈ 15.2 µg/mL).

Compound `NNC(=O)c1ccncc1` [ISONIAZID] yielded an MIC90 in assay [1] of 0.1 µM (≈ 0.0137 µg/mL).

Regarding `Clc1ccc(-c2nc(-c3ccccc3)c[nH]2)cc1`, the MIC90 in assay [1] came out at 59.8 µM (≈ 15.2 µg/mL).

In assay [1], `O=[N+]([O-])c1cccc(-c2nc(-c3ccccc3)c[nH]2)c1` had an MIC90 of 60.6 µM (≈ 16.1 µg/mL).

With `c1ccc(-c2c[nH]c(-c3ccncc3)n2)cc1`, the MIC90 in assay [1] is over 128 µM.

`FC(F)(F)c1cccc(-c2c[nH]c(-c3ccc(Cl)cc3)n2)c1`: in assay [1], the MIC90 was found to be 29.8 µM (≈ 9.62 µg/mL).

`FC(F)(F)c1ccc(-c2c[nH]c(-c3ccccc3)n2)cc1` registered an MIC90 in assay [1] of over 128 µM.

As to `COc1cccc(-c2nc(-c3ccccc3)c[nH]2)c1`, the MIC90 in assay [1] came to 73.7 µM (≈ 18.4 µg/mL).

Regarding `COc1cc(-c2nc(-c3cccc(C(F)(F)F)c3)c[nH]2)cc(C(F)(F)F)c1`, the results for the MIC90 in assay [1] and in assay [2] were 7.3 µM (≈ 2.82 µg/mL) and 63.7 µM, respectively.

`COc1cccc(-c2c[nH]c(-c3ccccc3)n2)c1` had an MIC90 in assay [1] of 88.4 µM (≈ 22.1 µg/mL).

(Values after ChEMBL document CHEMBL3593216, “Discovery of antitubercular 2,4-diphenyl-1H-imidazoles from chemical library repositioning and rational design” (2015).)
